Test results as given in US20220411372A1, “SMALL-MOLECULE INHIBITORS FOR THE B-CATENIN/B-CELL LYMPHOMA 9 PROTEIN-PROTEIN INTERACTION” (H. Lee Moffitt Cancer Center and Research Institute, Inc., priority 2019, published 2022).
pKi: −log10 of the molar value.

The molecules below were run against T1, β-catenin/BCL9 PPI (Homo sapiens, UniProt P35222) (assay: AlphaScreen competitive inhibition assay of the β-catenin/BCL9 PPI). Conditions: Table 3, inhibitors 27-43; read-out: Ki.
T1 construct: Full-length β-catenin (residues 1-781) were cloned into a pET-28b vector; made in house; host or cells: E. coli BL21 DE3 (β-catenin); BCL9 peptide synthesized by InnoPep Inc
T1 sequence (P35222 1-781): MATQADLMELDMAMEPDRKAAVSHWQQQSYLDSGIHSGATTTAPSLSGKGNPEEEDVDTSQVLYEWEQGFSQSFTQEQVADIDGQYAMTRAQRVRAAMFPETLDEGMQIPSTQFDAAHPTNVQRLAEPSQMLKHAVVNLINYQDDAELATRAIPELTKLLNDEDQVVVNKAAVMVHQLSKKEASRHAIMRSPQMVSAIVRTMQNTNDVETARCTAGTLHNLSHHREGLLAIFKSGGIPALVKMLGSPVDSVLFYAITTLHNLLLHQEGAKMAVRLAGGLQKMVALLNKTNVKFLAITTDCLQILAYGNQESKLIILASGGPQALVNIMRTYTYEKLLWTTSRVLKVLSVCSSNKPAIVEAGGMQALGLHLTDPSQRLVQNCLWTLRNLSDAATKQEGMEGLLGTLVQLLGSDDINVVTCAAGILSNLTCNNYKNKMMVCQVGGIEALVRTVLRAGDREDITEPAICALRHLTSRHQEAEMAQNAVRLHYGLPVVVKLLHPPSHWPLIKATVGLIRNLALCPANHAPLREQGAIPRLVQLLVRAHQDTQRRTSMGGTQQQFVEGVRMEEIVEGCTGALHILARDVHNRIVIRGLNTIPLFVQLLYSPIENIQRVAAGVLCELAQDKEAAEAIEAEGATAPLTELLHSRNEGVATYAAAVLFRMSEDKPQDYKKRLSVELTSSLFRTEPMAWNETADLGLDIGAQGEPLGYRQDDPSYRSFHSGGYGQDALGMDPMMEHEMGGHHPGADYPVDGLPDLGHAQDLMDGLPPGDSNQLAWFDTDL
Type: binding
Description: AlphaScreen Assays of β-Catenin and BCL9 Interaction. Experiments were performed in white opaque 384-well plates from PerkinElmer (Waltham, Mass.), and the samples were read on a Synergy 2 plate reader (Biotek, Winooski, Vt.) with excitation at 680 nm and emission at 570 nm. The standard AlphaScreen protocol was used with a sensitivity setting of 200. All dilutions were made in 1× assay buffer containing 25 mM Hepes (pH 7.4), 100 mM NaCl, 0.01% Triton X-100 and 0.1% BSA to minimize nonspecific interactions.
For the β-catenin/BCL9 assay, 5 nM biotinylated BCL9 and 40 nM His6-tagged β-catenin were incubated in assay buffer at 4° C. for 30 min. For the β-catenin/E-cadherin assay, 10 nM biotinylated human E-cadherin, and 40 nM His6-tagged human β-catenin were added and incubated in assay buffer at 4° C. for 30 min. Different concentrations of the tested inhibitor were added and incubated in 20 μL assay buffer at 4° C. for another 1 h. All of the assay plates were covered and gently mixed on an orbital shaker. The donor and acceptor beads were then added to the plates to a final concentration of 10 μg/mL in […]. The mixture was incubated for 1 h at 4° C. before detection. The IC50 value was determined by nonlinear least-square analysis of GraphPad Prism 5.0. […] All of the experiments were performed in triplicate and carried out in the presence of 1% DMSO for small-molecule inhibitors. Each compound was assayed at least by two independent experiments. The results were expressed as mean±standard deviation. The inhibitor selectivity for β-catenin/BCL9 over β-catenin/E-canderin interactions was defined as the ratio of the respective Ki value of β-catenin/E-cadherin interactions over that of β-catenin/BCL9 interactions.

| SMILES | pKi |
| --- | --- |
| CC(C)(Oc1cccc(N2CCC[C@@H](C(=O)N(Cc3ccc(C(C)(C)C)cc3)C3CC3)C2)c1)C(=O)N1CCNCC1 [Compound 28, (R)-4-(2-(3-(3-((4-(tert-butyl)benzyl)(cyclopropyl)carbamoyl)piperidin-1-yl)phenoxy)-2-methylpropanoyl)piperazin-1-ium chloride] | ≥ 4.52 |
| CC(C)(Oc1cccc(N2CCC[C@@H](C(=O)N(Cc3ccc(C4CCCCC4)cc3)C3CC3)C2)c1)C(=O)N1CCNCC1 [Compound 29, (R)-4-(2-(3-(3-((4-cyclohexylbenzyl)(cyclopropyl)carbamoyl)piperidin-1-yl)phenoxy)-2-methylpropanoyl)piperazin-1-ium chloride] | ≥ 5.30 |
| CC(C)(Oc1cccc(N2CCC[C@@H](C(=O)N(Cc3ccc(-c4ccccc4)cc3)C3CC3)C2)c1)C(=O)N1CCNCC1 [Compound 31, (R)-4-(2-(3-(3-(([1,1′-biphenyl]-4-ylmethyl)(cyclopropyl)carbamoyl)piperidin-1-yl)phenoxy)-2-methylpropanoyl)piperazin-1-ium chloride] | > 5.30 |
| CC(C)(Oc1cccc(N2CCC[C@@H](C(=O)N(Cc3ccc(-c4ccsc4)cc3)C3CC3)C2)c1)C(=O)N1CCNCC1 [Compound 32, (R)-4-(2-(3-(3-(cyclopropyl(4-(thiophen-3-yl)benzyl)carbamoyl)piperidin-1-yl)phenoxy)-2-methylpropanoyl)piperazin-1-ium chloride] | > 5.30 |
| CC(C)(Oc1cccc(N2CCC[C@@H](C(=O)N(Cc3ccc(-c4ccncc4)cc3)C3CC3)C2)c1)C(=O)N1CCNCC1 [Compound 35, (R)-4-(2-(3-(3-(cyclopropyl(4-(pyridin-4-yl)benzyl)carbamoyl)piperidin-1-yl)phenoxy)-2-methylpropanoyl)piperazin-1-ium chloride] | > 4.05 |
| Cn1cc(-c2ccc(CN(C(=O)[C@@H]3CCCN(c4cccc(OC(C)(C)C(=O)N5CCNCC5)c4)C3)C3CC3)cc2)cn1 [Compound 38, (R)-4-(2-(3-(3-(cyclopropyl(4-(1-methyl-11/-pyrazol-4-yl)benzyl)carbamoyl)piperidin-1-yl)phenoxy)-2-methylpropanoyl)piperazin-1-ium chloride] | ≥ 4.05 |
| Cc1noc(C)c1-c1ccc(CN(C(=O)[C@@H]2CCCN(c3cccc(OC(C)(C)C(=O)N4CCNCC4)c3)C2)C2CC2)cc1 [Compound 41, (R)-4-(2-(3-(3-(cyclopropyl(4-(3,5-dimethylisoxazol-4-yl)benzyl)carbamoyl)piperidin-1-yl)phenoxy)-2-methylpropanoyl)piperazin-1-ium chloride] | > 4.52 |
| CC(C)(Oc1cccc(N2CCC[C@@H](C(=O)N(Cc3ccc(-c4c[nH]c5ccccc45)cc3)C3CC3)C2)c1)C(=O)N1CCNCC1 [Compound 42, (R)-4-(2-(3-(3-((4-(1H-indol-3-yl)benzyl)(cyclopropyl)carbamoyl)piperidin-1-yl)phenoxy)-2-methylpropanoyl)piperazin-1-ium] | > 5.30 |

Results, then the molecule that gave them:

| pKi | SMILES |
| --- | --- |
| > 4.05 | CC(C)(Oc1cccc(N2CCC[C@@H](C(=O)N(Cc3ccc(-c4ccccn4)cc3)C3CC3)C2)c1)C(=O)N1CCNCC1 [Compound 33, (R)-4-(2-(3-(3-(cyclopropyl(4-(pyridin-2-yl)benzyl)carbamoyl)piperidin-1-yl)phenoxy)-2-methylpropanoyl)piperazin-1-ium chloride] |
| ≥ 4.30 | Cc1n[nH]cc1-c1ccc(CN(C(=O)[C@@H]2CCCN(c3cccc(OC(C)(C)C(=O)N4CCNCC4)c3)C2)C2CC2)cc1 [Compound 39, (R)-4-(2-(3-(3-(cyclopropyl(4-(3-methyl-1H-pyrazol-4-yl)benzyl)carbamoyl)piperidin-1-yl)phenoxy)-2-methylpropanoyl)piperazin-1-ium chloride] |
| > 5.00 | Cc1n[nH]c(C)c1-c1ccc(CN(C(=O)[C@@H]2CCCN(c3cccc(OC(C)(C)C(=O)N4CCNCC4)c3)C2)C2CC2)cc1 [Compound 40, (R)-4-(2-(3-(3-(cyclopropyl(4-(3,5-dimethyl-1H-pyrazol-4-yl)benzyl)carbamoyl)piperidin-1-yl)phenoxy)-2-methylpropanoyl)piperazin-1-ium chloride] |
